Source: the kinase profiling compilation of Christmann-Franck et al. (2016)

Legend:
Test in all cases: KINOMEscan competition binding
Conditions in all cases: compound 10.0 µM
PI4KB (human) = PI4KB (human) (UniProt Q9UBF8)
KDR (human) = KDR (human) (UniProt P35968)
IRAK3 (human) = IRAK3 (human) (UniProt Q9Y616)
TYRO3 (human) = TYRO3 (human) (UniProt Q06418)
MYLK4 (human) = MYLK4 (human) (UniProt Q86YV6)
MAPK4 (human) = MAPK4 (human) (UniProt P31152)
PIK3CA (human) = PIK3CA (human) (UniProt P42336)
PIK3CA (human), sequence (P42336 whole entry, looked up): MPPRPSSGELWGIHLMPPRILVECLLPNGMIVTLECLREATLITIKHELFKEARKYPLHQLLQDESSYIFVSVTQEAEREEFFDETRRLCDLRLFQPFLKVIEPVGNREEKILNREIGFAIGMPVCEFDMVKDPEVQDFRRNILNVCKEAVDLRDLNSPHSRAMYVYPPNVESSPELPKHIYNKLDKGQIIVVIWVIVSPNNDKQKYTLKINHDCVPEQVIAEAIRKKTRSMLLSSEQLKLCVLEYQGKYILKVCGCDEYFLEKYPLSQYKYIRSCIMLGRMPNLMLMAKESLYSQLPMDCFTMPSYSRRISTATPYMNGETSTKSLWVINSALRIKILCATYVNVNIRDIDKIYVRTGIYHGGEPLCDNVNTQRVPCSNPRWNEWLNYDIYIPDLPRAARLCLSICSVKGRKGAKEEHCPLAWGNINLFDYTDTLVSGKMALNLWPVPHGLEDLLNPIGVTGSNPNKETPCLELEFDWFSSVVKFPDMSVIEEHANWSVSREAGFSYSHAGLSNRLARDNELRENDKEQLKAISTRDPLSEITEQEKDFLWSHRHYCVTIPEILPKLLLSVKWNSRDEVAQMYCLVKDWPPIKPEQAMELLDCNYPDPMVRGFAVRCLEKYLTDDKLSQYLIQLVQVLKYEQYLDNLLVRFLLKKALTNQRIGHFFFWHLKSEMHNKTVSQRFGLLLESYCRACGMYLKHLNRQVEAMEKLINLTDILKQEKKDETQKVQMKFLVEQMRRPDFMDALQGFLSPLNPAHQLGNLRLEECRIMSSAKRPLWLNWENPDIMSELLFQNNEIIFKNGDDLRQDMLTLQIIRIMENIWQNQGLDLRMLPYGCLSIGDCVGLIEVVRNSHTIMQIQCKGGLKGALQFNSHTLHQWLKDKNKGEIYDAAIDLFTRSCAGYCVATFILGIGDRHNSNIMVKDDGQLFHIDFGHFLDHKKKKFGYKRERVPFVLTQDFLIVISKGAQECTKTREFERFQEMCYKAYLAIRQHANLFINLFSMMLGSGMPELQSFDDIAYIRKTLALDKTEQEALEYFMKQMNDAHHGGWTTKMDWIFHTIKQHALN

MET (human) = MET (human) (UniProt P08581)
MET (human), sequence (P08581 whole entry, looked up): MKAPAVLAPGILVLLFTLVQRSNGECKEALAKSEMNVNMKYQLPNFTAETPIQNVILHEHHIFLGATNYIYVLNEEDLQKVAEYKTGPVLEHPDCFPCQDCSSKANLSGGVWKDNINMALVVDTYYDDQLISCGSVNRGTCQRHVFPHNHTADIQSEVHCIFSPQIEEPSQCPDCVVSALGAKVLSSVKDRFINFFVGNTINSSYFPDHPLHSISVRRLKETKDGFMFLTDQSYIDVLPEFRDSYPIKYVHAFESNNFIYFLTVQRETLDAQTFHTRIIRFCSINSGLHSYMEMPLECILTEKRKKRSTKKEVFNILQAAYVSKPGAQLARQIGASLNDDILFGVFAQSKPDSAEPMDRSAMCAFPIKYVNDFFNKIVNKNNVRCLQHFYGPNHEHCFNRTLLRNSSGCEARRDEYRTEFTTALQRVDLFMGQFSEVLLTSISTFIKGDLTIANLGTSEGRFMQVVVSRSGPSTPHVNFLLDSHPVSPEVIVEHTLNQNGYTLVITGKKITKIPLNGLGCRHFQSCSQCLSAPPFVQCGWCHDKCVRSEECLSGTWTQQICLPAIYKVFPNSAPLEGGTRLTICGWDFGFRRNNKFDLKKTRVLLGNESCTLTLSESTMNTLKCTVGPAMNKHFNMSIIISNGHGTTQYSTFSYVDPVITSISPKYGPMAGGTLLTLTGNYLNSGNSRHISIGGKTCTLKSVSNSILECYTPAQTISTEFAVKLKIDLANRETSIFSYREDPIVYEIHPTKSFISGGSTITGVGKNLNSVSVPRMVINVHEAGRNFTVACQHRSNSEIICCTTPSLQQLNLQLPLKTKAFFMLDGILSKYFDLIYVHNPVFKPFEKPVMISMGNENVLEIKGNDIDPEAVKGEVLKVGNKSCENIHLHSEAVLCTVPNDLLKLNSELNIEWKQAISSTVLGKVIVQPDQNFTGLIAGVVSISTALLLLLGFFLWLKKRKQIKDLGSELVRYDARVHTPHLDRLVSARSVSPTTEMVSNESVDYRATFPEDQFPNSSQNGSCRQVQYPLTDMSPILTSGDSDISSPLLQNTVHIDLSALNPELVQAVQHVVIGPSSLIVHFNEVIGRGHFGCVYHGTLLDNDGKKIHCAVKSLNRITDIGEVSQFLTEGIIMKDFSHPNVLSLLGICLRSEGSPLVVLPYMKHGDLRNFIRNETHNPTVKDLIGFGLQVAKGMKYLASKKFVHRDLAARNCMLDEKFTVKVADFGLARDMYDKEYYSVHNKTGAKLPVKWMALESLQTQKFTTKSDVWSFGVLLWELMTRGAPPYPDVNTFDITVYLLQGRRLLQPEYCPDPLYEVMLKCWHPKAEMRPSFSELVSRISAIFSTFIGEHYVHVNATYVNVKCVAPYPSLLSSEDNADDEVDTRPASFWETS

MLTK (human) = MLTK (human) (UniProt Q9NYL2)
MLTK (human), sequence (Q9NYL2 whole entry, looked up): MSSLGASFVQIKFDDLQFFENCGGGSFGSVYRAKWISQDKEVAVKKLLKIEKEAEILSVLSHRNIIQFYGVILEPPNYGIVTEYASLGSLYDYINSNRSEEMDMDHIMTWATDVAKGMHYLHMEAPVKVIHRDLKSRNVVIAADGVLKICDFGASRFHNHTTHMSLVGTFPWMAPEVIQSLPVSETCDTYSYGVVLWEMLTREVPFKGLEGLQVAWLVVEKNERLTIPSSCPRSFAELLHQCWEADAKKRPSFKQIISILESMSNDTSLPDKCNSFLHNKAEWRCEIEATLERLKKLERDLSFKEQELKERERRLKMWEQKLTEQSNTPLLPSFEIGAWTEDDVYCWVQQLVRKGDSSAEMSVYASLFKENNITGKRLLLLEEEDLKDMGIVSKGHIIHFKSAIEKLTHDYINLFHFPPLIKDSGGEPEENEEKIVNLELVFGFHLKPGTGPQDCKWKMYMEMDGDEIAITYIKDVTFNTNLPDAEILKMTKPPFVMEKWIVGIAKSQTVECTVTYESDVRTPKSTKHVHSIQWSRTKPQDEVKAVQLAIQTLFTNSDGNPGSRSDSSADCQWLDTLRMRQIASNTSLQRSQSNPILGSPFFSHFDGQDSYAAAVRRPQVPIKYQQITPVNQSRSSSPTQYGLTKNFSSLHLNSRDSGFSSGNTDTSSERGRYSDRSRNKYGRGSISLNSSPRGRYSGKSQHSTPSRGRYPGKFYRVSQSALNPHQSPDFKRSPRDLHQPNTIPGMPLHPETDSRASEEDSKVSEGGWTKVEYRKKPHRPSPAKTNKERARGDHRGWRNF

CDK19 (human) = CDK19 (human) (UniProt Q9BWU1)
CSNK1D (human) = CSNK1D (human) (UniProt P48730)
RPS6KA1 KD1 (human) = RPS6KA1 KD1 (human) (UniProt Q15418)
WEE2 (human) = WEE2 (human) (UniProt P0C1S8)
YES1 (human) = YES1 (human) (UniProt P07947)
HUNK (human) = HUNK (human) (UniProt P57058)
MAPK7 (human) = MAPK7 (human) (UniProt Q13164)
MAPK7 (human), sequence (Q13164 whole entry, looked up): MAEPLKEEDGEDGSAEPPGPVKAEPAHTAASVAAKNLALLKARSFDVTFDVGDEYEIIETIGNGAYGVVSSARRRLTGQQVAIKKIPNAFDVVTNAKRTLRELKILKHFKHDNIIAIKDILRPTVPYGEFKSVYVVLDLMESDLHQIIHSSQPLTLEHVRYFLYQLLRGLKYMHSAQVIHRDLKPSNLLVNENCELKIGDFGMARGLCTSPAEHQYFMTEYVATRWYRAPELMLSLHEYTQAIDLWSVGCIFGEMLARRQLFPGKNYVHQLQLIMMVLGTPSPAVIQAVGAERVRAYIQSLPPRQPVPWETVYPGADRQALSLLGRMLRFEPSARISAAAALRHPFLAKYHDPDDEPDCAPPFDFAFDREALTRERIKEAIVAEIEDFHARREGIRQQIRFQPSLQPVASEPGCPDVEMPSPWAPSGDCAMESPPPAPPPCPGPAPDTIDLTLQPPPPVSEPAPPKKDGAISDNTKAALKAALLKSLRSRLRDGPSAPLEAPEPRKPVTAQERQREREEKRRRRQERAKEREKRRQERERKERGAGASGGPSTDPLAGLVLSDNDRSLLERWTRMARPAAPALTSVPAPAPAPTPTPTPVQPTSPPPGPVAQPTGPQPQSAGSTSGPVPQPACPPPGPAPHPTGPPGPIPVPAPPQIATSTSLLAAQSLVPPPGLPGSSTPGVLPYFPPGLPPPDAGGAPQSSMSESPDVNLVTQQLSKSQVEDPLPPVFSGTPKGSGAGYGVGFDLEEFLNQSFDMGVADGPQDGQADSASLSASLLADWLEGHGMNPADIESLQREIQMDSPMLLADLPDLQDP

PLK2 (human) = PLK2 (human) (UniProt Q9NYY3)
MAPK1 (human) = MAPK1 (human) (UniProt P28482)
ACVR1B (human) = ACVR1B (human) (UniProt P36896)
CSNK2A2 (human) = CSNK2A2 (human) (UniProt P19784)
LATS1 (human) = LATS1 (human) (UniProt O95835)
[1] = molecular target: TYK2 JH2 pseudokinase (human) (UniProt P29597)
NTRK2 (human) = NTRK2 (human) (UniProt Q16620)
MUSK (human) = MUSK (human) (UniProt O15146)
RPS6KA6 KD2 (human) = RPS6KA6 KD2 (human) (UniProt Q9UK32)
RPS6KA6 KD2 (human), sequence (Q9UK32 whole entry, looked up): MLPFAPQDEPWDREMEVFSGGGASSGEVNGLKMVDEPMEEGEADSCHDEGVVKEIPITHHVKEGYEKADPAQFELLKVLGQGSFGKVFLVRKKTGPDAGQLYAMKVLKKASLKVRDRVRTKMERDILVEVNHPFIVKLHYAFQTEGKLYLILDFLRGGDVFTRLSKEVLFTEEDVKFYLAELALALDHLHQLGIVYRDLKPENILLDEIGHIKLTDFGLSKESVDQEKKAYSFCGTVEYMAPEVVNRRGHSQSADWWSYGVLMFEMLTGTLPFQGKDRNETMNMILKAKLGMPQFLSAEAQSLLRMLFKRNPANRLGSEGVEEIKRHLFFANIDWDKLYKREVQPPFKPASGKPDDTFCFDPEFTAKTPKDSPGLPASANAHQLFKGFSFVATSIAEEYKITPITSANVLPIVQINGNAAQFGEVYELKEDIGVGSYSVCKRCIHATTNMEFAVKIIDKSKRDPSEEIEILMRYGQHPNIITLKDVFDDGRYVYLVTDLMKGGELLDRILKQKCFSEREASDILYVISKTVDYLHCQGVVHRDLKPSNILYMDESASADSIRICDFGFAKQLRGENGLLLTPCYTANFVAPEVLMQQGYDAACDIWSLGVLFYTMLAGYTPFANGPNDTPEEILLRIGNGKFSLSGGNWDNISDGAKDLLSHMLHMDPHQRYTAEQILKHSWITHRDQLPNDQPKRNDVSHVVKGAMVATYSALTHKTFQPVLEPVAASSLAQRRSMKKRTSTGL

BMPR1B (human) = BMPR1B (human) (UniProt O00238)
CDK3 (human) = CDK3 (human) (UniProt Q00526)
AKT3 (human) = AKT3 (human) (UniProt Q9Y243)
BRSK1 (human) = BRSK1 (human) (UniProt Q8TDC3)
TNNI3K (human) = TNNI3K (human) (UniProt Q59H18)
IGF1R (human) = IGF1R (human) (UniProt P08069)
HCK (human) = HCK (human) (UniProt P08631)
ACVR1 (human) = ACVR1 (human) (UniProt Q04771)
AURKB (human) = AURKB (human) (UniProt Q96GD4)
PDPK1 (human) = PDPK1 (human) (UniProt O15530)

Row | Structure (SMILES) | kinase still bound, per cent of control (KDR (human)) [%] | kinase still bound, per cent of control (IRAK3 (human)) [%] | kinase still bound, per cent of control (TYRO3 (human)) [%] | kinase still bound, per cent of control (MYLK4 (human)) [%] | kinase still bound, per cent of control (MAPK4 (human)) [%] | kinase still bound, per cent of control (PIK3CA (human)) [%] | kinase still bound, per cent of control (MET (human)) [%] | kinase still bound, per cent of control (MLTK (human)) [%] | kinase still bound, per cent of control (CDK19 (human)) [%] | kinase still bound, per cent of control (CSNK1D (human)) [%] | kinase still bound, per cent of control (RPS6KA1 KD1 (human)) [%] | kinase still bound, per cent of control (WEE2 (human)) [%] | kinase still bound, per cent of control (YES1 (human)) [%] | kinase still bound, per cent of control (MAPK7 (human)) [%] | kinase still bound, per cent of control (MAPK1 (human)) [%] | kinase still bound, per cent of control (ACVR1B (human)) [%] | kinase still bound, per cent of control (CSNK2A2 (human)) [%] | kinase still bound, per cent of control (LATS1 (human)) [%] | kinase still bound, per cent of control [1] [%] | kinase still bound, per cent of control (NTRK2 (human)) [%] | further results
1 | CCN(CC)CCCCNc1ncc2c(n1)N(C)C(=O)N(c1c(Cl)c(OC)cc(OC)c1Cl)C2 | 100 | 100 | 100 | 100 | 100 | 100 | 100 | 100 | 100 | 100 | 100 | 100 | 100 | 4.1 | 100 | 100 | 100 | 100 | 100 | 100 | kinase still bound, per cent of control (PI4KB (human)): 100%; kinase still bound, per cent of control (HUNK (human)): 100%; kinase still bound, per cent of control (PLK2 (human)): 100%; kinase still bound, per cent of control (MUSK (human)): 100%; kinase still bound, per cent of control (RPS6KA6 KD2 (human)): 100%; kinase still bound, per cent of control (BMPR1B (human)): 100%; kinase still bound, per cent of control (CDK3 (human)): 100%; kinase still bound, per cent of control (AKT3 (human)): 100%; kinase still bound, per cent of control (BRSK1 (human)): 100%; kinase still bound, per cent of control (TNNI3K (human)): 100%; kinase still bound, per cent of control (IGF1R (human)): 100%; kinase still bound, per cent of control (HCK (human)): 100%; kinase still bound, per cent of control (ACVR1 (human)): 100%; kinase still bound, per cent of control (AURKB (human)): 100%; kinase still bound, per cent of control (PDPK1 (human)): 100%
2 | CNC(=O)c1ccc(Nc2cc(Nc3ccccc3S(=O)(=O)C(C)C)c3cc[nH]c3n2)nc1 | 100 | 15 | 29 | 100 | 100 | 100 | 1 | 100 | 100 | 100 | 0.8 | 100 | 1.6 | 100 | 22 | 100 | 18 | 100 | 0.95 | 0 | kinase still bound, per cent of control (MUSK (human)): 0.95%; kinase still bound, per cent of control (RPS6KA6 KD2 (human)): 100%; kinase still bound, per cent of control (BMPR1B (human)): 3.4%; kinase still bound, per cent of control (CDK3 (human)): 100%; kinase still bound, per cent of control (AKT3 (human)): 100%; kinase still bound, per cent of control (BRSK1 (human)): 100%; kinase still bound, per cent of control (TNNI3K (human)): 100%; kinase still bound, per cent of control (IGF1R (human)): 2.2%; kinase still bound, per cent of control (HCK (human)): 11%; kinase still bound, per cent of control (ACVR1 (human)): 100%; kinase still bound, per cent of control (AURKB (human)): 0.7%; kinase still bound, per cent of control (PDPK1 (human)): 100%
